Source: ChEMBL document CHEMBL4673281, “Influenza antiviral activity of F- and OH-containing isopulegol-derived octahydro-2H-chromenes” (Bioorg Med Chem Lett, 2021)
Active and inactive are the calls of the source. The rule behind the calls is not given here.

Assays:
[1] = system: Influenza A virus; test: Antiviral activity against Influenza A virus (A/Puerto Rico/8/34 (H1N1) infected in MDCK cells assessed as decrease in viral titer preincubated for 1 hr followed by viral infection and cultivated for 48 hrs followed by supernatant transferred to chicken erythrocyte for 1 hr followed by measuring ability to cause positive hemagglutination; type: functional, organism-based; conditions: A/Puerto Rico/8/1934(H1N1)
[2] = Selectivity index, ratio of CC50 for MDCK cells to IC50 for Influenza A virus (A/Puerto Rico/8/34 (H1N1)) infected in MDCK cells; type: toxicity, cell-based; conditions: dog, read-out: Ratio CC50/IC50
[3] = Cytotoxicity against MDCK cells assessed as cell death incubated for 48 hrs by MTT assay; type: cell-based, Canis lupus familiaris; conditions: dog
[4] = system: Influenza A virus; test: Antiviral activity against Influenza A virus (A/Puerto Rico/8/34(H1N1)) pdm09 infected in MDCK cells assessed as inhibition of virus infection at early stage by time of addition experiment; type: functional, organism-based; conditions: A/Puerto Rico/8/1934(H1N1)
[5] = system: Influenza A virus (A/Puerto Rico/8/1934(H1N1)); test: Inhibition of Hemagglutinin in Influenza A virus (A/Puerto Rico/8/34(H1N1)); conditions: dose 0-300 µg/ml

| Structure (SMILES) | IC50 [1] [µM] | selectivity ratio [2] | CC50 at 48 h [3] [µM] | Activity [4] | inhibition [5] |
| --- | --- | --- | --- | --- | --- |
| COc1ccc([C@H]2CC(C)(F)[C@@H]3CC[C@@H](C)C[C@H]3O2)cc1O (some centres undefined) | > 32 | 4 | 136 | – | – |
| COc1ccc([C@H]2CC(C)(F)[C@@H]3CC[C@@H](C)C[C@H]3O2)cc1OC (some centres undefined) | > 9 | 2 | 20 | – | – |
| COc1ccc([C@H]2CC(C)(F)[C@@H]3CC[C@@H](C)C[C@H]3O2)cc1 (some centres undefined) | > 103 | 2 | 171 | – | – |
| COc1ccc([C@H]2CC(C)(O)[C@@H]3CC[C@@H](C)C[C@H]3O2)cc1 (some centres undefined) | 29 | 24 | 689 | – | – |
| COc1cc([C@H]2CC(C)(F)[C@@H]3CC[C@@H](C)C[C@H]3O2)ccc1O (some centres undefined) | > 324 | 2 | 642 | – | – |
| COc1cc(OC)c([C@H]2CC(C)(O)[C@@H]3CC[C@@H](C)C[C@H]3O2)cc1OC (some centres undefined) | > 857 | 1 | > 857 | – | – |
| COc1ccc([C@H]2CC(C)(O)[C@@H]3CC[C@@H](C)C[C@H]3O2)cc1O (some centres undefined) | 118 | 6 | 738 | – | – |
| C[C@@H]1CC[C@@H]2[C@@H](C1)O[C@@H](c1ccccc1)CC2(C)O (some centres undefined) | 100 | 6 | 580 | – | – |
| C[C@@H]1CC[C@@H]2[C@@H](C1)O[C@@H](c1ccc([N+](=O)[O-])cc1)CC2(C)F (some centres undefined) | > 976 | 1 | > 976 | – | – |
| CC(N)C12CC3CC(CC(C3)C1)C2 (centres undefined) [RIMANTADINE] | 69 | 5 | 326 | – | – |
| C[C@@H]1CC[C@@H]2[C@@H](C1)O[C@@H](c1ccccc1O)CC2(C)O (some centres undefined) | > 1090 | 1 | > 1090 | – | – |
| C[C@@H]1CC[C@@H]2[C@@H](C1)O[C@@H](c1ccc(F)cc1)CC2(C)O (some centres undefined) | > 36 | 2 | 65 | – | – |
| COc1cc(OC)c([C@H]2CC(C)(F)[C@@H]3CC[C@@H](C)C[C@H]3O2)c(OC)c1 (some centres undefined) | 24 | 35 | 851 | Active | Dose-dependent effect |
| C[C@@H]1CC[C@@H]2[C@@H](C1)O[C@@H](c1ccccc1)CC2(C)F (some centres undefined) | > 38 | 2 | 65 | – | – |
| C[C@@H]1CC[C@@H]2[C@@H](C1)O[C@@H](c1ccc(O)cc1)CC2(C)O (some centres undefined) | 87 | 1 | 127 | – | – |
| COc1ccc([C@H]2CC(C)(F)[C@@H]3CC[C@@H](C)C[C@H]3O2)c(OC)c1 (some centres undefined) | 155 | 2 | 379 | – | – |
| C[C@@H]1CC[C@@H]2[C@@H](C1)O[C@@H](c1ccc(Br)cc1)CC2(C)F (some centres undefined) | 391 | 2 | > 882 | – | – |
| COc1cc([C@H]2CC(C)(F)[C@@H]3CC[C@@H](C)C[C@H]3O2)cc(OC)c1OC (some centres undefined) | 199 | 3 | 568 | – | – |
| COc1cccc([C@H]2CC(C)(O)[C@@H]3CC[C@@H](C)C[C@H]3O2)c1OC (some centres undefined) | > 937 | 1 | > 937 | – | – |
| COc1ccc(OC)c([C@H]2CC(C)(F)[C@@H]3CC[C@@H](C)C[C@H]3O2)c1 (some centres undefined) | > 31 | 1 | 37 | – | – |

| Structure (SMILES) | IC50 [1] [µM] | selectivity ratio [2] | CC50 at 48 h [3] [µM] | Activity [4] | inhibition [5] |
| --- | --- | --- | --- | --- | --- |
| COc1cc([C@H]2CC(C)(O)[C@@H]3CC[C@@H](C)C[C@H]3O2)cc(OC)c1O (some centres undefined) | 235 | 2 | 473 | – | – |
| COc1cc(OC)c([C@H]2CC(C)(O)[C@@H]3CC[C@@H](C)C[C@H]3O2)c(OC)c1 (some centres undefined) | 19 | 45 | 856 | Active | Dose-dependent effect |
| COc1ccc(OC)c([C@H]2CC(C)(O)[C@@H]3CC[C@@H](C)C[C@H]3O2)c1 (some centres undefined) | > 312 | 2 | 512 | – | – |
| COc1ccc([C@H]2CC(C)(F)[C@@H]3CC[C@@H](C)C[C@H]3O2)c(OC)c1OC (some centres undefined) | 6 | 22 | 133 | – | – |
| C[C@@H]1CC[C@@H]2[C@@H](C1)O[C@@H](c1ccc(Br)cc1)CC2(C)O (some centres undefined) | > 89 | 1 | 132 | – | – |
| COc1ccc([C@H]2CC(C)(O)[C@@H]3CC[C@@H](C)C[C@H]3O2)c(OC)c1 (some centres undefined) | 78 | 12 | > 937 | – | – |
| COc1cc([C@H]2CC(C)(F)[C@@H]3CC[C@@H](C)C[C@H]3O2)cc(OC)c1O (some centres undefined) | 59 | 3 | 158 | – | – |
| C[C@@H]1CC[C@@H]2[C@@H](C1)O[C@@H](c1ccc(F)cc1)CC2(C)F (some centres undefined) | > 36 | 2 | 68 | – | – |
| COc1cc([C@H]2CC(C)(O)[C@@H]3CC[C@@H](C)C[C@H]3O2)cc(OC)c1OC (some centres undefined) | > 285 | 1 | 405 | – | – |
| NC(=O)c1ncn([C@@H]2O[C@H](CO)[C@@H](O)[C@H]2O)n1 [RIBAVIRIN] | 35 | 61 | > 2130 | – | – |
| C[C@@H]1CC[C@@H]2[C@@H](C1)O[C@@H](c1ccccc1O)CC2(C)F (some centres undefined) | > 36 | 1 | 44 | – | – |
| C[C@@H]1CC[C@@H]2[C@@H](C1)O[C@@H](c1ccc([N+](=O)[O-])cc1)CC2(C)O (some centres undefined) | 393 | 3 | > 982 | – | – |
| COc1ccc([C@H]2CC(C)(O)[C@@H]3CC[C@@H](C)C[C@H]3O2)c(OC)c1OC (some centres undefined) | 717 | 1 | > 857 | – | – |
| C[C@@H]1CC[C@@H]2[C@@H](C1)O[C@@H](c1ccc(Cl)cc1)CC2(C)F (some centres undefined) | 29 | 2 | 57 | – | – |
| COc1cc(OC)c([C@H]2CC(C)(F)[C@@H]3CC[C@@H](C)C[C@H]3O2)cc1OC (some centres undefined) | 6 | 13 | 78 | – | – |
| C[C@@H]1CC[C@@H]2[C@@H](C1)O[C@@H](c1ccc(O)cc1)CC2(C)F (some centres undefined) | > 36 | 3 | 95 | – | – |
| COc1cc([C@H]2CC(C)(O)[C@@H]3CC[C@@H](C)C[C@H]3O2)ccc1O (some centres undefined) | > 327 | 1 | 411 | – | – |
| C[C@@H]1CC[C@@H]2[C@@H](C1)O[C@@H](c1ccc(Cl)cc1)CC2(C)O (some centres undefined) | > 37 | 2 | 62 | – | – |
| COc1cccc([C@H]2CC(C)(F)[C@@H]3CC[C@@H](C)C[C@H]3O2)c1OC (some centres undefined) | 43 | 4 | 180 | – | – |
| COc1ccc([C@H]2CC(C)(O)[C@@H]3CC[C@@H](C)C[C@H]3O2)cc1OC (some centres undefined) | 344 | 3 | > 937 | – | – |
